{"source": "BindingDB's records for doi:10.1021/jm020384z", "about": "(Aventis Pharmaceuticals, 2003)", "key": {"Coagulation factor X": {"target": "Coagulation factor X (Homo sapiens, UniProt P00742)", "sequence (P00742 41-179 limits assumed)": "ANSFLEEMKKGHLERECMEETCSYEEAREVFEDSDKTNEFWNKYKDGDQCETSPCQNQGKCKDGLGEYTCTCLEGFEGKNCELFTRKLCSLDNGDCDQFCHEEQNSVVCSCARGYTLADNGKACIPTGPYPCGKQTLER", "sequence (P00742 235-488 limits assumed)": "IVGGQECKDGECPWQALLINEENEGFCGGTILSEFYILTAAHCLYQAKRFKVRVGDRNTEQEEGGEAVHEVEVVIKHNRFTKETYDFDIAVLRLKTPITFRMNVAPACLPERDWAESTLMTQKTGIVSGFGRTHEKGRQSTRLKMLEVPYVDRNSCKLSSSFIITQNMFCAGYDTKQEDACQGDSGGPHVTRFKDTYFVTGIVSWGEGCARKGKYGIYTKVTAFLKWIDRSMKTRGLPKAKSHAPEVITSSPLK", "experiment": "In vitro binding affinity for human Coagulation factor X"}, "Prothrombin": {"target": "Prothrombin (Homo sapiens, UniProt P00734)", "experiment": "Binding affinity towards thrombin"}, "Serine protease 1": {"target": "Serine protease 1 (Homo sapiens, UniProt P07477)", "sequence (P07477 whole entry)": "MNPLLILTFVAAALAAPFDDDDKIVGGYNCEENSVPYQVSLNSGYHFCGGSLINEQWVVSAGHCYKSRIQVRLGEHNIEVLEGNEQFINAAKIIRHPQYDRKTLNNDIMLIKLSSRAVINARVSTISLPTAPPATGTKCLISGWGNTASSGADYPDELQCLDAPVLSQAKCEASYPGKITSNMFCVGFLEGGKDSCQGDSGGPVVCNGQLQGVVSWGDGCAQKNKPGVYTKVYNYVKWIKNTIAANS", "experiment": "Binding affinity towards trypsin"}}}
{"smiles": "O=C1CN(S(=O)(=O)c2cc3cccnc3s2)CCN1Cc1cc2cnccc2[nH]1", "note": "[1-(1H-Pyrrolo[3,2-c]pyridin-2-ylmethyl)-4-(thieno[2,3-b]pyridine-2-sulfonyl)-piperazin-2-one]", "values": [{"measurement": "Ki", "setting": "Coagulation factor X", "result": "> 1200", "unit": "nM"}]}
{"smiles": "O=C1CN(S(=O)(=O)c2cc3ncccc3s2)CCN1Cc1cc2cnccc2[nH]1", "note": "[1-(1H-Pyrrolo[3,2-c]pyridin-2-ylmethyl)-4-(thieno[3,2-b]pyridine-2-sulfonyl)-piperazin-2-one]", "values": [{"measurement": "Ki", "setting": "Coagulation factor X", "result": "> 1200", "unit": "nM"}]}
{"smiles": "O=C1CN(S(=O)(=O)c2cc3ccc(Cl)cc3s2)CCN1Cc1cc2c(=O)[nH]ccc2[nH]1", "note": "[2-[4-(6-Chloro-benzo[b]thiophene-2-sulfonyl)-2-oxo-piperazin-1-ylmethyl]-1,5-dihydro-pyrrolo[3,2-c]pyridin-4-one]", "values": [{"measurement": "Ki", "setting": "Prothrombin", "result": "> 3900", "unit": "nM"}, {"measurement": "Ki", "setting": "Serine protease 1", "result": "> 2900", "unit": "nM"}, {"measurement": "Ki", "setting": "Coagulation factor X", "result": "> 1200", "unit": "nM"}]}
{"smiles": "O=C1CN(S(=O)(=O)c2sc3ccccc3c2Cl)CCN1Cc1cc2cnccc2[nH]1", "note": "[4-(3-Chloro-benzo[b]thiophene-2-sulfonyl)-1-(1H-pyrrolo[3,2-c]pyridin-2-ylmethyl)-piperazin-2-one]", "values": [{"measurement": "Ki", "setting": "Coagulation factor X", "result": "> 1200", "unit": "nM"}]}
{"smiles": "O=C1CN(S(=O)(=O)c2ccc(-c3ccc(Cl)cc3)cc2)CCN1Cc1cc2cnccc2[nH]1", "note": "[4-(4'-Chloro-biphenyl-4-sulfonyl)-1-(1H-pyrrolo[3,2-c]pyridin-2-ylmethyl)-piperazin-2-one]", "values": [{"measurement": "Ki", "setting": "Coagulation factor X", "result": "> 1200", "unit": "nM"}]}
{"smiles": "O=C1CN(S(=O)(=O)c2cc3ccc(Cl)cc3s2)CCN1Cc1nc2ccncc2[nH]1", "note": "[4-(6-Chloro-benzo[b]thiophene-2-sulfonyl)-1-(1H-imidazo[4,5-c]pyridin-2-ylmethyl)-piperazin-2-one]", "values": [{"measurement": "Ki", "setting": "Prothrombin", "result": "> 3900", "unit": "nM"}, {"measurement": "Ki", "setting": "Serine protease 1", "result": "> 2900", "unit": "nM"}, {"measurement": "Ki", "setting": "Coagulation factor X", "result": "> 1200", "unit": "nM"}]}
{"smiles": "O=C1CN(S(=O)(=O)c2cc3ccc(Cl)cc3s2)CCN1Cc1cc2ncccc2[nH]1", "note": "[4-(6-Chloro-benzo[b]thiophene-2-sulfonyl)-1-(1H-pyrrolo[3,2-b]pyridin-2-ylmethyl)-piperazin-2-one]", "values": [{"measurement": "Ki", "setting": "Prothrombin", "result": "> 3900", "unit": "nM"}, {"measurement": "Ki", "setting": "Serine protease 1", "result": "> 2900", "unit": "nM"}, {"measurement": "Ki", "setting": "Coagulation factor X", "result": "> 1200", "unit": "nM"}]}
{"smiles": "COc1cc(C=CS(=O)(=O)N2CCN(Cc3cc4cnccc4[nH]3)C(=O)C2)sc1Cl", "note": "[4-[2-(5-Chloro-4-methoxy-thiophen-2-yl)-ethenesulfonyl]-1-(1H-pyrrolo[3,2-c]pyridin-2-ylmethyl)-piperazin-2-one]", "values": [{"measurement": "Ki", "setting": "Coagulation factor X", "result": "> 1200", "unit": "nM"}]}
